Results from the kinase profiling compilation of Christmann-Franck et al. (2016).

How the values were obtained:
Assay in all cases: KINOMEscan competition binding
[1] = target: PLK4 (human) (UniProt O00444); conditions: compound 1.0 µM
[2] = target: PIK3C2B (human) (UniProt O00750); conditions: compound 1.0 µM
[3] = target: CAMK1G (human) (UniProt Q96NX5); conditions: compound 1.0 µM
[4] = target: NEK6 (human) (UniProt Q9HC98); conditions: compound 1.0 µM
[5] = target: PRKX (human) (UniProt P51817); conditions: compound 1.0 µM
[6] = target: AURKC (human) (UniProt Q9UQB9); conditions: compound 1.0 µM
[7] = target: BRAF (human) (UniProt P15056); conditions: compound 1.0 µM
[8] = target: RIOK1 (human) (UniProt Q9BRS2); conditions: compound 1.0 µM
[9] = target: PAK4 (human) (UniProt O96013); conditions: compound 1.0 µM
[10] = target: RPS6KA4 KD2 (human) (UniProt O75676); conditions: compound 1.0 µM
[11] = target: CSNK1A1 (human) (UniProt P48729); conditions: compound 1.0 µM
[12] = target: PRKG2 (human) (UniProt Q13237); conditions: compound 1.0 µM
[13] = target: SBK1 (human) (UniProt Q52WX2); conditions: compound 1.0 µM
[14] = target: NEK3 (human) (UniProt P51956); conditions: compound 1.0 µM
[15] = target: IKBKE (human) (UniProt Q14164); conditions: compound 1.0 µM
[16] = target: SIK2 (human) (UniProt Q9H0K1); conditions: compound 1.0 µM
[17] = target: PRKCE (human) (UniProt Q02156); conditions: compound 1.0 µM
[18] = system: KIT (human), P10721 [D816V]; conditions: compound 1.0 µM
[19] = target: ERN1 (human) (UniProt O75460); conditions: compound 1.0 µM
[20] = target: PIK3CB (human) (UniProt P42338); conditions: compound 1.0 µM
[21] = target: PIK3CG (human) (UniProt P48736); conditions: compound 1.0 µM
[22] = target: AURKB (human) (UniProt Q96GD4); conditions: compound 1.0 µM
[23] = target: DMPK (human) (UniProt Q09013); conditions: compound 1.0 µM
[24] = system: KIT (human), P10721 [L576P]; conditions: compound 1.0 µM
[25] = target: STK16 (human) (UniProt O75716); conditions: compound 1.0 µM
[26] = target: ACVRL1 (human) (UniProt P37023); conditions: compound 1.0 µM
[27] = target: DAPK3 (human) (UniProt O43293); conditions: compound 1.0 µM
[28] = target: GRK1 (human) (UniProt Q15835); conditions: compound 1.0 µM
[29] = target: CDK4 CCND3 (human) (UniProt P11802+P30281); conditions: compound 1.0 µM
[30] = target: PRKD1 (human) (UniProt Q15139); conditions: compound 1.0 µM
[31] = target: SIK1 (human) (UniProt P57059); conditions: compound 1.0 µM
[32] = target: CSNK1G1 (human) (UniProt Q9HCP0); conditions: compound 1.0 µM
[33] = system: PIK3CA (human), P42336 [E545A]; conditions: compound 1.0 µM
[34] = target: CDKL5 (human) (UniProt O76039)
[35] = target: PKMYT1 (human) (UniProt Q99640); conditions: compound 1.0 µM
[36] = target: NEK7 (human) (UniProt Q8TDX7); conditions: compound 1.0 µM
[37] = target: MAP4K1 (human) (UniProt Q92918); conditions: compound 1.0 µM
[38] = target: PTK6 (human) (UniProt Q13882); conditions: compound 1.0 µM
[39] = target: AKT1 (human) (UniProt P31749); conditions: compound 1.0 µM
[40] = target: PAK3 (human) (UniProt O75914); conditions: compound 1.0 µM
[41] = target: RIPK4 (human) (UniProt P57078); conditions: compound 1.0 µM
[42] = target: MELK (human) (UniProt Q14680); conditions: compound 1.0 µM
[43] = target: HIPK1 (human) (UniProt Q86Z02); conditions: compound 1.0 µM

Chain of CDKL5 (human) (O76039 whole entry, looked up): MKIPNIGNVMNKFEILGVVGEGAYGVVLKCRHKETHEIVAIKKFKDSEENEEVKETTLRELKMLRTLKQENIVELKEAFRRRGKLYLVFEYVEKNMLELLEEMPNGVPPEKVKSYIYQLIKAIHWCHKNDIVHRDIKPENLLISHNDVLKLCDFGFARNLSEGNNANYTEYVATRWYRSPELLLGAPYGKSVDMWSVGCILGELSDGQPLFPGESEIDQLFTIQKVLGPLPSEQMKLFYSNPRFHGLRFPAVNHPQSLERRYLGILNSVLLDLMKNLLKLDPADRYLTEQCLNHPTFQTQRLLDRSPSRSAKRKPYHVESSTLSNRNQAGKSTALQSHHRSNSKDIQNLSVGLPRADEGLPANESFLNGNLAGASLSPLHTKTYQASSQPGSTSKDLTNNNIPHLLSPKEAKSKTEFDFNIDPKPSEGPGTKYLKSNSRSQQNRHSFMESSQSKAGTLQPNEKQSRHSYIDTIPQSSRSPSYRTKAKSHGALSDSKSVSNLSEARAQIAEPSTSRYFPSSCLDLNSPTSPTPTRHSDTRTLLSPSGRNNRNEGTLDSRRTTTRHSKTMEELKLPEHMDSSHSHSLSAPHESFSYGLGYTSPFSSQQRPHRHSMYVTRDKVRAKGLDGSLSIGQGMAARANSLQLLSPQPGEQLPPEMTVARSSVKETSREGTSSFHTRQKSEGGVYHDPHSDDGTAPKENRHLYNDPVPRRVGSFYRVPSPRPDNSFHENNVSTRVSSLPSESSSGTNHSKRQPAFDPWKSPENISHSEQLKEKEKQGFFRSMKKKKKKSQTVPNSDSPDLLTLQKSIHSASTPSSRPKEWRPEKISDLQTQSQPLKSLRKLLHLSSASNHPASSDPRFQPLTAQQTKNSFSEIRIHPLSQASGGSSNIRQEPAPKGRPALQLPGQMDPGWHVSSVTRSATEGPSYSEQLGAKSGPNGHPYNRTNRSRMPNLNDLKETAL
Chain of RIOK1 (human) (Q9BRS2 whole entry, looked up): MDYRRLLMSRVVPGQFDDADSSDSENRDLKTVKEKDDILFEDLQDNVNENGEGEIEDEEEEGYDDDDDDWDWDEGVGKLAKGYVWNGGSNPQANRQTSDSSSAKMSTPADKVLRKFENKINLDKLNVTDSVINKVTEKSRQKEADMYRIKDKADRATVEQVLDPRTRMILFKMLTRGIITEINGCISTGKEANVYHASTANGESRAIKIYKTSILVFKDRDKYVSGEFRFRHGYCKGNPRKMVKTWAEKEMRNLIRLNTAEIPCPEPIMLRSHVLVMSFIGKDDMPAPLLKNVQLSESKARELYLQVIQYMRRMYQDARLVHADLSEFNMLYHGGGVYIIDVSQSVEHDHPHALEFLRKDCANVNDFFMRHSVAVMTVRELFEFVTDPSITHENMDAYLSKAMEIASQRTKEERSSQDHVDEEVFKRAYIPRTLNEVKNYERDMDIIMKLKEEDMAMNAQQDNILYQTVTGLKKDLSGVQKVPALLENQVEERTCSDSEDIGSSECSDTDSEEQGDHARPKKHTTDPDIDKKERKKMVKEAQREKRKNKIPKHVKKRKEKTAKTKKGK
Chain of RPS6KA4 KD2 (human) (O75676 whole entry, looked up): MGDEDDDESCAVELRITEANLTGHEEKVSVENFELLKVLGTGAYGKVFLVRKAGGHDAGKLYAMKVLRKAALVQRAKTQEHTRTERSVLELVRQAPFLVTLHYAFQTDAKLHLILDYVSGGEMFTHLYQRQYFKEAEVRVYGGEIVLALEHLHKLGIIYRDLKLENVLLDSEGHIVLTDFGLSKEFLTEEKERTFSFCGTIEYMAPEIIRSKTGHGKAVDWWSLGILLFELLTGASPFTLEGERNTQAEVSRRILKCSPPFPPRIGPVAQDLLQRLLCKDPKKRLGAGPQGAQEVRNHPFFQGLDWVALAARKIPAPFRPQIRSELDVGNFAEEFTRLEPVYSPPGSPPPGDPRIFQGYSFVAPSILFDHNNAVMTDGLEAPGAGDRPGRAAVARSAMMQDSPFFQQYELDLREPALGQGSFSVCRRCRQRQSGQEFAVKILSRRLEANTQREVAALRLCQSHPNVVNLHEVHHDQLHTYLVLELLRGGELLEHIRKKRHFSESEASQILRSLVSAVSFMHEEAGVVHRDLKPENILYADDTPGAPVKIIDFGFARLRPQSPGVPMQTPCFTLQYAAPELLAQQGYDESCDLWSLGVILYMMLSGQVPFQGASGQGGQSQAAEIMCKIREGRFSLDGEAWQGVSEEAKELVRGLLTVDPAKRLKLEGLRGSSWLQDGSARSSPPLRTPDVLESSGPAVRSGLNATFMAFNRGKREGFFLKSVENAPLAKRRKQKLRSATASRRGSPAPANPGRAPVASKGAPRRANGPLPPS
Chain of PRKX (human) (P51817 whole entry, looked up): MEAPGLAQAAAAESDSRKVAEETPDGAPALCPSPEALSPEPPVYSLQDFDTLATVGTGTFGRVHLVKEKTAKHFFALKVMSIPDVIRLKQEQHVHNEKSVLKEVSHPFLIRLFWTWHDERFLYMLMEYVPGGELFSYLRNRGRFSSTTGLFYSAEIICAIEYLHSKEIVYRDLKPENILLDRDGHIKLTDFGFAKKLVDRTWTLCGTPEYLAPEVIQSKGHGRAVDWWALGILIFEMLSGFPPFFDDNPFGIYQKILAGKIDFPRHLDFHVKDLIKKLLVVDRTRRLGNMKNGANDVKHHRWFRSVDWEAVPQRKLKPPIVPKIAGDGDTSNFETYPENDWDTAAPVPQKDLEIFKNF
Chain of GRK1 (human) (Q15835 whole entry, looked up): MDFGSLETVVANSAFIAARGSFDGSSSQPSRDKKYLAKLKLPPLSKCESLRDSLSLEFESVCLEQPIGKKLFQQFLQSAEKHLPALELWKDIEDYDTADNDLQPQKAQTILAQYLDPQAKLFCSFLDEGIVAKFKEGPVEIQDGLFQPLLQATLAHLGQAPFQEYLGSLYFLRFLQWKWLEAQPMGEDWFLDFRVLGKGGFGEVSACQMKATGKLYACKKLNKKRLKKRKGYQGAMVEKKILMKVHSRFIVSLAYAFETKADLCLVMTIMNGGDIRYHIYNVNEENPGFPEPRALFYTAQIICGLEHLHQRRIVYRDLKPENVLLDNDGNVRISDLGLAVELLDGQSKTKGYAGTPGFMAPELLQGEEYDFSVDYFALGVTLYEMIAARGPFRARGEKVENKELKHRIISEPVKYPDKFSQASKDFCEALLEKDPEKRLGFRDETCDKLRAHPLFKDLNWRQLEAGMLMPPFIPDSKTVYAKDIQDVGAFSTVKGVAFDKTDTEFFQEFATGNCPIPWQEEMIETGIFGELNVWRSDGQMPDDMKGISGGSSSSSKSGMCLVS
Chain of MAP4K1 (human) (Q92918 whole entry, looked up): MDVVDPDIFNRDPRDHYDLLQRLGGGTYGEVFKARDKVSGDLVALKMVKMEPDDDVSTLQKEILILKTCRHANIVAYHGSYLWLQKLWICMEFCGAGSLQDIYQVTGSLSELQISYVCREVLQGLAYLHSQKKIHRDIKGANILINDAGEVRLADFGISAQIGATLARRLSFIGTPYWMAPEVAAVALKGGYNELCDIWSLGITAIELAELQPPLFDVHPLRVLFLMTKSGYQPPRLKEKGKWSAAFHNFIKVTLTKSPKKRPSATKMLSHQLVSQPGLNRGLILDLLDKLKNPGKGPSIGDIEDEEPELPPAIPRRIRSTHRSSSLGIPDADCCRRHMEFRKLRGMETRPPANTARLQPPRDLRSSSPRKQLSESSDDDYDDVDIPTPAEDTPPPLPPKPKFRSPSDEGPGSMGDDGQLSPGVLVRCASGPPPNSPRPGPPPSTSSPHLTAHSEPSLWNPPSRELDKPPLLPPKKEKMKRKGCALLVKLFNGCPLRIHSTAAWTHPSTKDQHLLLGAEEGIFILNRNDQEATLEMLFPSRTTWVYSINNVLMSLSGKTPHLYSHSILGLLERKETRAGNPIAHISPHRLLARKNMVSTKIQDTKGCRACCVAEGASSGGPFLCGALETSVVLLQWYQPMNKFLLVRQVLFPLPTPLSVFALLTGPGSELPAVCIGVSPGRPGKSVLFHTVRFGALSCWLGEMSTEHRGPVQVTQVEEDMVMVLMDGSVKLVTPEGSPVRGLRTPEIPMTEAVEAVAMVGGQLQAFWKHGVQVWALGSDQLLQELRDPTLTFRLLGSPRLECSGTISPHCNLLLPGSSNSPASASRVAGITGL
Chain of CSNK1A1 (human) (P48729 whole entry, looked up): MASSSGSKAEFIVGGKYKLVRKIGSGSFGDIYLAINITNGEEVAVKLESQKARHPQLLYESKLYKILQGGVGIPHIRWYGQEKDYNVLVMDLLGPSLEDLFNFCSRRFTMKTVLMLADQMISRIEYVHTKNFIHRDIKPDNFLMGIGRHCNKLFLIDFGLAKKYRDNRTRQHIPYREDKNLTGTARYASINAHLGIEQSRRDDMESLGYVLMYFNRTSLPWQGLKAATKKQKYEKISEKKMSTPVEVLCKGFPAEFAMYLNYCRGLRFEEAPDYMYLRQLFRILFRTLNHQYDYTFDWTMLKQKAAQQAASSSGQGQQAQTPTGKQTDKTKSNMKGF
Chain of SBK1 (human) (Q52WX2 whole entry, looked up): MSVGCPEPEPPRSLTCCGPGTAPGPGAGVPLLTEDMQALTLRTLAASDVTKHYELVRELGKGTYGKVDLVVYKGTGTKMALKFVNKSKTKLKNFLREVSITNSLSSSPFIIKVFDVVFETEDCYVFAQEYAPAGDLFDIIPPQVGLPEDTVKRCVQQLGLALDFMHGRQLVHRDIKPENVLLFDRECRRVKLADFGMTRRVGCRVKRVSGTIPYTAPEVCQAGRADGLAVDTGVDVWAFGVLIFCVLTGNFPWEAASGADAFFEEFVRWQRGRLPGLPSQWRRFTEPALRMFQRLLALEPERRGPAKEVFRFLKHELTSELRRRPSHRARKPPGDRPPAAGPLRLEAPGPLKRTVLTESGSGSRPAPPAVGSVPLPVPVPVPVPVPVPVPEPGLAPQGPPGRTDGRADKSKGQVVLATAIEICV

Compound: CN(C)C/C=C/C(=O)Nc1cccc(C(=O)Nc2ccc(Nc3nccc(-c4cccnc4)n3)cc2)c1
- kinase still bound, per cent of control [1]: 52%
- kinase still bound, per cent of control [2]: 100%
- kinase still bound, per cent of control [3]: 78%
- kinase still bound, per cent of control [4]: 17%
- kinase still bound, per cent of control [5]: 96%
- kinase still bound, per cent of control [6]: 33%
- kinase still bound, per cent of control [7]: 95%
- kinase still bound, per cent of control [8]: 15%
- kinase still bound, per cent of control [9]: 79%
- kinase still bound, per cent of control [10]: 65%
- kinase still bound, per cent of control [11]: 19%
- kinase still bound, per cent of control [12]: 82%
- kinase still bound, per cent of control [13]: 66%
- kinase still bound, per cent of control [14]: 6.8%
- kinase still bound, per cent of control [15]: 98%
- kinase still bound, per cent of control [16]: 51%
- kinase still bound, per cent of control [17]: 61%
- kinase still bound, per cent of control [18]: 16%
- kinase still bound, per cent of control [19]: 78%
- kinase still bound, per cent of control [20]: 94%
- kinase still bound, per cent of control [21]: 21%
- kinase still bound, per cent of control [22]: 63%
- kinase still bound, per cent of control [23]: 90%
- kinase still bound, per cent of control [24]: 2.2%
- kinase still bound, per cent of control [25]: 15%
- kinase still bound, per cent of control [26]: 100%
- kinase still bound, per cent of control [27]: 65%
- kinase still bound, per cent of control [28]: 100%
- kinase still bound, per cent of control [29]: 61%
- kinase still bound, per cent of control [30]: 100%
- kinase still bound, per cent of control [31]: 87%
- kinase still bound, per cent of control [32]: 69%
- kinase still bound, per cent of control [33]: 95%
- Kd [34]: 34 nM
- kinase still bound, per cent of control ([34]; compound 1.0 µM): 1.7%
- kinase still bound, per cent of control [35]: 100%
- kinase still bound, per cent of control [36]: 7%
- kinase still bound, per cent of control [37]: 79%
- kinase still bound, per cent of control [38]: 77%
- kinase still bound, per cent of control [39]: 87%
- kinase still bound, per cent of control [40]: 100%
- kinase still bound, per cent of control [41]: 31%
- kinase still bound, per cent of control [42]: 30%
- kinase still bound, per cent of control [43]: 3.6%
